Measured values from patent publication US7008911B2, “Non-surfactant solubilizing agent” (Ecolab, Inc., priority 2002, dated 2006).

Experiments:
Assay type in all cases: physicochemical
[1] = Alcohol amine added to aqueous PPh solution until single phase observed; settings: aqueous PPh (34-37 wt % PPh, 39-42 wt % water), room temperature, Formulations B-E
[2] = Alcohol amine added to aqueous EPh solution until single phase observed; settings: for amount added until a single phase solution was observed: 100 grams total, room temperature
[3] = Alcohol amine added to aqueous benzyl alcohol solution until single phase observed; settings: aqueous benzyl alcohol (37 wt %, water 42 wt %), room temperature, Formulation F
[4] = listed as of Table 4 with 1 % Eph in H2O, Eph 1 wt % normalized
[5] = listed as of Table 4 with 2.5 % Eph in H2O, Eph 2 wt % normalized
[6] = listed as of Table 4 with 5 % Eph in H2O, Eph 4 wt % normalized
[7] = listed as of Table 4 with 10 % Eph in H2O, Eph 7-8 wt % normalized
[8] = listed as of Table 4 with 15 % Eph in H2O, Eph 10-12 wt % normalized
[9] = listed as of Table 4 with 20 % Eph in H2O, Eph 14-15 wt % normalized
[10] = listed as of Table 4 with 30 % Eph in H2O, Eph 21-23 wt % normalized
[11] = listed as of Table 4 with 50 % Eph in H2O, Eph 36-40 wt % normalized
[12] = listed as of Table 4 with 75 % Eph in H2O, Eph 58-64 wt % normalized

| alcohol amine at single phase, normalized on total weight % [1] [wt %] | amount added until a single phase solution was observed ([2]; 1 % Eph in H2O) [Grams] | amount added until a single phase solution was observed ([2]; 2.5 % Eph in H2O) [Grams] | amount added until a single phase solution was observed ([2]; 5 % Eph in H2O) [Grams] | amount added until a single phase solution was observed ([2]; 10 % Eph in H2O) [Grams] | amount added until a single phase solution was observed ([2]; 15 % Eph in H2O) [Grams] | amount added until a single phase solution was observed ([2]; 20 % Eph in H2O) [Grams] | amount added until a single phase solution was observed ([2]; 30 % Eph in H2O) [Grams] | amount added until a single phase solution was observed ([2]; 50 % Eph in H2O) [Grams] | amount added until a single phase solution was observed ([2]; 75 % Eph in H2O) [Grams] | alcohol amine at single phase, normalized to 100 weight % of water, alcohol amine and EPh [2, 4] [wt %] | alcohol amine at single phase, normalized to 100 weight % of water, alcohol amine and EPh [2, 5] [wt %] | alcohol amine at single phase, normalized to 100 weight % of water, alcohol amine and EPh [2, 6] [wt %] | alcohol amine at single phase, normalized to 100 weight % of water, alcohol amine and EPh [2, 7] [wt %] | alcohol amine at single phase, normalized to 100 weight % of water, alcohol amine and EPh [2, 8] [wt %] | alcohol amine at single phase, normalized to 100 weight % of water, alcohol amine and EPh [2, 9] [wt %] | alcohol amine at single phase, normalized to 100 weight % of water, alcohol amine and EPh [2, 10] [wt %] | alcohol amine at single phase, normalized to 100 weight % of water, alcohol amine and EPh [2, 11] [wt %] | alcohol amine at single phase, normalized to 100 weight % of water, alcohol amine and EPh [2, 12] [wt %] | alcohol amine at single phase, normalized on total weight % [3] [wt %] | Compound |
| --- | --- | --- | --- | --- | --- | --- | --- | --- | --- | --- | --- | --- | --- | --- | --- | --- | --- | --- | --- | --- |
| 21 | 3.5 | 16 | 26.8 | 32.2 | 33.5 | 32.9 | 31.1 | 26 | 17.5 | 3 | 14 | 21 | 24 | 25 | 25 | 24 | 20 | 15 | 21 | CC(O)CN (stereo not shown) [MIPA, monoisopropanolamine] |
| 25 | 2.3 | 12.7 | 26.9 | 40.5 | 45.4 | 44 | 40 | 34 | 26.1 | 2 | 11 | 21 | 29 | 32 | 30 | 29 | 26 | 20 | – | NCCO [MEA, monoethanolamine] |
| 21 | 4.8 | 12.3 | 21.5 | 26.8 | 28.7 | 29.2 | 29 | 26.7 | 17.8 | 5 | 11 | 18 | 21 | 22 | 23 | 23 | 22 | 15 | – | CC(C)(N)CO [AMP, 2-amino-2-methyl-1-propanol] |
